Results reported in patent EP0977755B1, “HETEROCYCLIC COMPOUNDS AND THEIR PREPARATION AND USE” (NOVO NORDISK A/S, priority 1997, dated 1998).
Structures can show the parent of a compound that is named as a salt. Where two headings read alike, the source gives them in different places.

Biological target: T1, m1 muscarinic receptor (Rattus norvegicus, UniProt P08482)
T1 construct: expressed in transfected cells; host or cells: A9 L cells (mouse fibroblast line)
T1 sequence (P08482 1-460): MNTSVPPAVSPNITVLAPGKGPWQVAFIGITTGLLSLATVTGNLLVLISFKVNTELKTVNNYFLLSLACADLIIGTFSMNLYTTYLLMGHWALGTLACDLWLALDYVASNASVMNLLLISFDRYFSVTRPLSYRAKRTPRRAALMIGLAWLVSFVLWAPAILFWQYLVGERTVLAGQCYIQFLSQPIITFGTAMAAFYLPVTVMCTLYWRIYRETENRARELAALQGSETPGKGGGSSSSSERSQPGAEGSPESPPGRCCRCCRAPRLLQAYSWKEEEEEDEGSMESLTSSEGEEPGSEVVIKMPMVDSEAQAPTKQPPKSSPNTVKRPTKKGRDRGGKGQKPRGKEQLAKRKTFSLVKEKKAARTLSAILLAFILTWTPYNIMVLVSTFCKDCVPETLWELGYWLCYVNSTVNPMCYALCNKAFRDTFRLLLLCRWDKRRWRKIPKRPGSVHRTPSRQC
Assay: IP hydrolysis in A9 L cells cloned with the genetic m1 muscarinic receptor
Assay type: cell-based, human and rat
Details: for Emax: A9L-m1, 0.75 h, read-out: % PI (efficacy); for Emax / % PI (efficacy): percentage of total [3H]IP accumulated in the presence of 100 µM carbachol stimulation, 37°C for 45 min; for EC50: IP hydrolysis, seven point curves, three separate experiments
Procedure: IP hydrolysis in A9 L cells cloned with the genetic m, muscarinic receptor: A9 L cells transfected with human and rat m, muscarinic receptors (Dörje et al., 1991; Jones et al., 1988), were cultured to confluence in 75-ml flasks containing Dulbecco's modified essential media. Cells were prelabeled with 1 µCi/ml of myo(2-[^3H]inositol (Amersham Inc., 16.3 Ci/mmol) for 48 hr before assaying. On the day of assay, cells were detached using a 30-sec exposure to 0.25% trypsin in 1 mM EDTA. The cells were collected by centrifugation (300 x g for 5 min) and resuspended in oxygenated HEPES buffer containing 10 mM LiCl (NaCl 142 mM, KCl 5.6 mM, CaCl2 2.2 mM, MgCl2 1 mM, NaHCO3 3.6 mM, D-glucose 5.6 mM and Na^+ HEPES 30 mM, pH 7.4). Cells were incubated at 37°C for 45 min in the presence of varying concentrations of test compounds. Total IP hydrolysis was determined using the method of Schoepp and Johnson (1988). […] Half-maximal (EC50) values were determined from the mean (±S.D.) of seven point curves determined from three separate experiments.

| Emax [%] | EC50 (read-out: EC50) [nM] | % PI (efficacy) (45 min) [%] | % PI (efficacy) [%] | Compound | EC50 (EC50, nM) [nM] |
| --- | --- | --- | --- | --- | --- |
| 56 | 14 | – | – | CC(C)C(C#Cc1ccsc1)Oc1nsnc1C1CN2CCC1C2 (mixture of isomers) [Compound 16, Exo (+-) 3-(3-(1-(3-Thienyl)-4-methyl-1-pentyn-3-yloxy)-1 ,2,5-thiadiazol-4-yl)-1-azabicyclo[2.2.1]heptane, (+)-tartrate] | – |
| 80 | 210 | – | – | C(#Cc1ccccc1)COc1nsnc1[C@H]1CN2CC[C@@H]1C2 (racemic) [Compound 1, Endo (+-) 3-(3-(3-Phenyl-2-propyn-1-yloxy)-1,2,5-thiadiazol-4-yl)-1-azabicyclo[2 2.1]heptane,(+)--tartrate] | – |
| 74 | 1800 | – | – | Fc1ccc(C#CCOc2nsnc2[C@H]2CN3CC[C@@H]2C3)cc1 (racemic) [Compound 2, Endo (+-) 3-(3-(3-(4-Fluorophenyl)-2-propyn-1-yloxy)-1,2,5-thiadiazol-4-yl)-1-azabicyclo[2.2.1]heptane,(+)-tartrate] | – |
| 100 | 0.7 | – | – | C(#Cc1ccccc1)COc1nsnc1C1CN2CCC1C2 (racemic) [Compound 13, Exo (+-) 3-(3-(3-Phenyl-2-propyn-1-yloxy)-1.2.5-thiadlazol-4-yl)-1-azabicyclo[2 2.1]heptane, (+)-tartrate] | – |
| – | – | – | – | C(#Cc1ccccc1)COc1nsnc1C1CN2CCC1CC2 (racemic) [Compound 53, (+-)3-(3-(3-Phenyl-2-propyn-1-yloxy)-1,2,5-thiadiazol-4-yl)-1-azabicyclo[2.2.2]octane, oxalate] | 13 |
| 81 | 95 | – | – | Fc1ccc(C#CCOc2nsnc2[C@H]2CN3CC[C@@H]2C3)cc1 (single isomer, unassigned) [Compound 3, Endo (α)-3-(3-(3-(4-Fluorophenyl)-2-propyn-1-yloxy)-1.2.5-thiadiazol-4-yl)-1-azabicyclo[2.2.1]heptane.(+)-tartrate] | – |
| – | 159 | 77 | – | C(#Cc1ccccc1)COc1nsnc1[C@H]1CN2CC[C@@H]1C2 (single isomer, unassigned) [Compound 4, Endo (α)-3-(3-(3-Phenyl-2-propyn-1-yloxy)-1,2,5-thiadiazol-4-yl)-1-azabicyclo[2.2.1]heptane, (+)-tartrate] | – |
| – | 42 | 73 | – | COc1cccc(C#CCOc2nsnc2[C@H]2CN3CC[C@@H]2C3)c1 (single isomer, unassigned) [Compound 5, Endo (α)-3-(3-(3-(3-Methoxyphenyl)-2-propyn-1-yloxy)-1,2,5-thiadiazol-4-yl)-1-azabicyclo[2.2.1]heptane, (+)-tartrate] | – |
| 108 | 380 | – | – | C(#Cc1ccsc1)COc1nsnc1[C@H]1CN2CC[C@@H]1C2 (single isomer, unassigned) [Compound 7, Endo (α)-3-(3-[3-(3-Thienyl)-2-propyn-1-yloxy]-1,2,5-thiadiazol-4-yl)-1-azabicyclo[2.2 1]heptane, (+)-tartrate] | – |
| 91 | 670 | – | – | C(#Cc1cccs1)COc1nsnc1[C@H]1CN2CC[C@@H]1C2 (single isomer, unassigned) [Compound 8, Endo (α)-3-(3-(3-(2-Thienyl)-2-propyn-1-yloxy)-1,2,5-thiadiazol-4-yl)-1-azabicyclo[2 2 1]heptane. (+)-tartrate] | – |
| – | 38 | 68 | – | Fc1ccc(C#CCOc2nsnc2[C@H]2CN3CC[C@@H]2C3)cc1 (single isomer, unassigned) [Compound 9, Endo (β)-3-(3-(3-(4-Fluorophenyl)-2-propyn-1-yloxy)-1.2.5-thiadiazol-4-yl)-1-azabicyclo[2 2.1]heptane, (-)-tartrate] | – |
| 57 | 75 | – | – | COc1cccc(C#CCOc2nsnc2[C@H]2CN3CC[C@@H]2C3)c1 (single isomer, unassigned) [Compound 10, Endo (β)-3-(3-(3-(3-Methoxyphenyl)-2-propyn-1-yloxy)-1,2,5-thiadiazol-4-yl)-1-azabicyclo[2.2.1]heptane, (-)-tartrate] | – |
| 64 | 98 | – | – | C(#Cc1ccccc1)COc1nsnc1[C@H]1CN2CC[C@@H]1C2 (single isomer, unassigned) [Compound 11, Endo (β)-3-(3-(3-Phenyl-2-propyn-1-yloxy)-1,2,5-thiadiazol-4-yl)-1-azabicyclo[2.2.1]heptane, (+)-tartrate] | – |
| 98 | 1 | – | – | C(#Cc1ccccc1)CSc1nsnc1[C@@H]1CN2CCC[C@H]1C2 [Compound 20, Endo (5R,6S)-6-(3-(3-Phenyl-2-propyn-1-ylthio)-1,2,5-thiadiazol-4-yl)-1-azabicyclo[3,2 1]octane, (+)-tartrate] | – |
| 67 | 105 | – | – | Fc1cccc(C#CCSc2nsnc2[C@@H]2CN3CCC[C@H]2C3)c1 [Compound 21, Endo (5R,6S)-6-(3-(3-(3-Fluorophenyl)-2-propyn-1-ylthio)-1,2,5-thiadiazol-4-yl)-1-azabicyclo[3.2.1]octane, (+)-tartrate] | – |
| 105 | 300 | – | – | C(#Cc1ccsc1)CSc1nsnc1[C@@H]1CN2CCC[C@H]1C2 [Compound 24, Endo (5R,6S)-6-(3-(3-(3-Thienyl)-2-propyn-1-ylthio)-1,2,5-thiadiazol-4-yl)-1-azabicyclo[3.2.1]octane, (+)-tartrate] | – |
| 69 | 210 | – | – | C(#Cc1cccs1)CSc1nsnc1[C@@H]1CN2CCC[C@H]1C2 [Compound 25, Endo (5R,6S)-6-(3-(3-(2-Thienyl)-2-propyn-1-ylthio)-1,2,5-thiadiazol-4-yl)-1-azabicyclo[3.2.1]octane, (+)-tartrate] | – |
| 93 | 280 | – | – | C(#Cc1ccccc1)COc1nsnc1[C@@H]1CN2CCC[C@H]1C2 [Compound 26, Endo (5R,6S)-6-(3-(3-Phenyl-2-propyn-1-yloxy)-1,2,5-thiadiazol-4-yl)-1-azabicyclo[3 2 1]octane, (+)-tartrate] | – |
| 79 | 187 | – | – | Fc1ccc(C#CCOc2nsnc2[C@@H]2CN3CCC[C@H]2C3)cc1 [Compound 27, Endo (5R,6S)-6-(3-(3-(4-Fluorophenyl)-2-propyn-1-yloxy)-1,2,5-thiadiazol-4-yl)-1-azabicyclo[3.2.1]octane, (+)-tartrate] | – |
| 97 | 22 | – | – | COc1cccc(C#CCOc2nsnc2[C@@H]2CN3CCC[C@H]2C3)c1 [Compound 28, Endo (5R,6S)-6-(3-(3-(3-Methoxyphenyl)-2-propyn-1-yloxy)-1,2,5-thiadiazol-4-yl)-1-azabicyclo[3.2.1]octane, (+)-tartrate] | – |
| – | 20 | – | 82 | C(#Cc1ccsc1)COc1nsnc1[C@@H]1CN2CCC[C@H]1C2.O=C(O)C(O)C(O)C(=O)O [Compound 30, Endo (5R,6S)-6-(3-[3-(3-Thienyl)-2-propyn-1-yloxy]-1,2,5-thiadiazol-4-yl)-1-azabicyclo[3.2.1]octane, (+)-tartrate] | – |
| – | – | – | – | C(#Cc1cccnc1)COc1nsnc1[C@@H]1CN2CCC[C@H]1C2 [Compound 31, Endo (5R,6S)-6-(3-[3-(3-Pyridyl)-2-propyn-1-yloxy]-1,2,5-thiadiazol-4-yl)-1-azabicyclo[3.2.1]octane, (+)-tartrate] | 26 |
| 105 | 0.2 | – | – | C(#Cc1ccccc1)CSc1nsnc1[C@H]1C[N@@]2CCC[C@H]1C2 [Compound 39, Exo (5R,6R)-6-(3-(3-Phenyl-2-propyn-1-ylthio)-1,2,5-thiadiazol-4-yl)-1-azabicyclo[3.2.1]octane. (+)-tartrate] | – |
| 102 | 0.5 | – | – | C(#Cc1ccccc1)COc1nsnc1[C@H]1C[N@@]2CCC[C@H]1C2 [Compound 40, Exo (5R,6R)-6-(3-(3-Phenyl-2-propyn-1-yloxy)-1,2,5-thiadiazol-4-yl)-1-azabicyclo[3.2.1]octane, oxalate] | – |
| 100 | 2 | – | – | COc1cccc(C#CCOc2nsnc2[C@H]2CN3CCC[C@H]2C3)c1 [Compound 41, Exo (5R,6R)-6-(3-(3-(3-Methoxyphenyl)-2-propyn-1-yfoxy)-1,2,5-thiadiazol-4-yl)-1-azabicyclo[3.2.1]octane, oxalate] | – |
| 99 | 12 | – | – | FC(F)(F)c1cccc(C#CCOc2nsnc2[C@H]2CN3CCC[C@H]2C3)c1 [Compound 42, Exo (5R,6R)-6-(3-(3-(3-Trifluoromethylphenyl)-2-propyn-1-yloxy)-1,2,5-thiadiazol-4-yl)-1-azabicyclo[3.2.1]octane, (+)-tartrate] | – |
| 85 | 9 | – | – | COc1cccc(C#CC(C)Oc2nsnc2[C@H]2CN3CCC[C@H]2C3)c1 (stereo partly drawn) [Compound 43, Exo (5R,6R)-6-(3-(3-(3-Methoxyphenyl)-1-methyl-2-propyn-1-yloxy)-1,2,5-thiadiazol-4-yl)-1-azabicyclo[3.2.1]octane, (+)-tartrate] | – |

| Compound | Emax [%] | EC50 (read-out: EC50) [nM] | % PI (efficacy) (45 min) [%] | % PI (efficacy) [%] | EC50 (EC50, nM) [nM] |
| --- | --- | --- | --- | --- | --- |
| Fc1ccc(C#CCOc2nsnc2C2CN3CCC2CC3)cc1 (racemic) [Compound 54, (+-) 3-(3-(3-(4-Fluorophenyl)-2-propyn-1-yloxy)-1,2,5-thiadiazol-4-yl)-1-azabicyclo[2.2.2]octane, oxalate] | – | 224 | – | – | – |
